Test results published in patent US7919300B2, “Glucose isomerase mutants” (priority 2004, dated 2011).
Where two headings read alike, the source gives them in different places.

Target: Thermoanaerobacterium saccharolyticum glucose isomerase (ATCC 49915), wild-type, SEQ ID NO.: 2 (Thermoanaerobacterium saccharolyticum, UniProt P30435)
Details: pH 6.5, 20 mM sodium phosphate, 250 μM CoCl2, 5 mM MgCl2, 10 minutes
Procedure: The isolation and purification of wild-type glucose isomerase were based on Lee et al., (Journal of General Microbiology, 139:1227-1234, 1993) with modifications. pGEMT-TS transformed E. coli HB101 cells were incubated on 1% MacConkey agar plate containing 1% xylose and 50 mg/L ampicillin at 37° C. for 36 hours. A single colony from the plate was inoculated and cultivated in 5 mL LB supplemented with 50 mg/L ampicillin for 16 hours. The bacterial cells were pelleted and resuspended in 1 ml 20 mM phosphate buffer (pH 6.5), and CoCl2 and MgCl2 were added to final concentration of 250 μM and 5 mM, respectively. The cells were disrupted by using ultrasonication and centrifuged at 17,800 g for 15 minutes at 10° C. to collect the supernatant as crude glucose isomerase. The crude enzyme was heated at 80° C. for 10 minutes and centrifuged again at 17,800 g for 15 minutes at 10° C. to remove the precipitation.
Ninety μl of the stock solution was mixed with 10 μl of the glucose isomerase prepared as described in Example 9, incubated at 80° C. for 10 minutes and quenched on ice immediately. The fructose formed was measured by the cysteine-carbazole method (Dische et al., J. Biol. Chem, 192:583-587, 1951; and Nakamura, Agr. Biol. Chem. 32:701-706, 1968). The protein concentration was determined using Coomassie® Plus Protein Assay Reagent Kit (Pierce, USA) and SDD-PAGE, with BSA as the standard.

Sequence of Thermoanaerobacterium saccharolyticum glucose isomerase (ATCC 49915), wild-type, SEQ ID NO.: 2 (P30435 whole entry R81A): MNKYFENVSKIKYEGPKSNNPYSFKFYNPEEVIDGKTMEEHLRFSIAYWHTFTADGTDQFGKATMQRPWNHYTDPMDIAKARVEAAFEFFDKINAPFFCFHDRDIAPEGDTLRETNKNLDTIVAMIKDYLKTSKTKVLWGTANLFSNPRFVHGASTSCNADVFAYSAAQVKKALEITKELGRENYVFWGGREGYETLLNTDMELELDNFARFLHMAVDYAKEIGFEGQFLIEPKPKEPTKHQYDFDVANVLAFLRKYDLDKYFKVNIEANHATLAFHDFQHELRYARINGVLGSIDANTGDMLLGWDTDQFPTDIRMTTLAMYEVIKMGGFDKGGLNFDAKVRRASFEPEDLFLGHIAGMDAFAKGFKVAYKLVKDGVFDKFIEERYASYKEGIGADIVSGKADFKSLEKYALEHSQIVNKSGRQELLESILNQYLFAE

With `OC[C@H]1OC(O)[C@H](O)[C@@H](O)[C@@H]1O` (stereo partly drawn) [D-glucose] as the molecule, how does the Kcat (65° C.) read?
Its Kcat is 5.742 s⁻¹.

And the Kcat/Km (65° C.)?
Its Kcat/Km is 41.7 M⁻¹ s⁻¹.

What about the Kcat (80° C.) of the same molecule?
The Kcat was 14.68 s⁻¹.

And the Kcat/Km (80° C.)?
The Kcat/Km was 98.3 M⁻¹ s⁻¹.
